# Measured values taken from PubChem BioAssay AID2060882 (Molecular Pharmacology Branch, DTP, NCI, 2025).
# Test system: 898857-211-R-J1-PDC complex spheroids, growth % test/control
# Assay: Anticancer human tumor 898857-211-R-J1-PDC patient-derived melanoma cell line growth inhibition [RAS]
# Settings: for IC50: curve of first compound; for viability, T/C: stronger effect = lower value
# Excerpt: RAS pathway inhibitors in Combinations in Complex Spheroids
# A high-throughput screen of multi-cell type tumor spheroids was designed to identify active combinations of RAS pathway inhibitors and targeted small molecules. Complex spheroids include a stromal component modeled by human endothelial cells (HUVEC) and fibroblasts modeled by human mesenchymal stem cells (MSCs). The concentration ranges selected for each drug and investigational agent were based upon clinically achievable concentrations if the clinical Cmax of the agent was known.
# Compounds. The drugs and investigational agents: abemaciclib (NSC768073), cobimetinib (NSC768068), divarasib (GDC6063, NSC841802), docetaxel (NSC628503), GDC-1971 (RLY-1971, NSC841576), gemcitabine (NSC613327), inavolisib (NSC800729), ipatasertib (NSC767898), KB-0742 (NSC834161), MRTX-1133 (NSC836407), osimertinib (NSC779217), RMC-4630 (NSC839698), RMC-6236 (NSC851965), RMC-6291 (NSC852671), Ro-3306 (NSC812927), sapanisertib (NSC764658), SN-38 (NSC673596), staurosporine (NSC755774), SY5609 (NSC837396), and tovorafenib (DAY101, NSC766906), were obtained from the National Cancer Institute (NCI) Developmental Therapeutics Program Chemical Repository. The FDA-approved anticancer drug set is available from the NCI Developmental Therapeutics Program. […] The stock solutions were prepared in dimethyl sulfoxide (DMSO, Sigma-Aldrich, St. Louis, MO, cat. D2650) at 800-fold the tested concentration and stored at -70 degrees C prior to their use. All drugs and investigational agents were tested over a range starting from a high concentration at or near the clinical Cmax and decreasing in half-log increments. If the clinical Cmax for an agent had not been determined, the highest concentration tested was 10 microM.
# Cell Culture. All cells were maintained in an incubator at 37 degrees C and 5% CO2 with 95% humidity. The PDC lines were cultured according to standard operating procedures established by the NCI PDMR. All PDCs were thawed and cultured in Matrigel-coated flasks prepared with a working solution of 1X Ham's F-12 nutrient mix, without supplementation (Invitrogen, Waltham, MA, cat. 11765054), 100 U/mL penicillin-streptomycin (Invitrogen, cat. 15140122), and 2.5% Matrigel (Corning Inc., Corning, NY, cat. 354248) for the first three passages. The 362531-283-R-J2-PDC and 782815-120-R-J1-PDC lines were cultured in 6C/Colon 1B media, which includes advanced DMEM/F-12 (Thermo Fisher Scientific, cat. 12634028), 10 mM HEPES (Thermo Fisher Scientific, cat. 15630080), 1X GlutaMAX supplement (Thermo Fisher Scientific, cat. 35050061), 0.1 mg/mL primocin (InvivoGen, San Diego, CA, cat. ant-pm-2), 10% defined fetal bovine serum, heat inactivated (HyClone Laboratories Inc., Logan, UT, cat. SH30070.03HI), 50% L-WRN conditioned media (ATCC, cat. CRL-3276), 1.25 mM N-Acetyl-L-cysteine (Sigma-Aldrich, cat. A9165), 10 mM nicotinamide (Sigma-Aldrich, cat. N0636), 1X B-27 supplement (Thermo Fisher Scientific, cat. 17504044), 1X N-2 supplement (Thermo Fisher Scientific, cat. 17502048), 50 ng/mL human EGF (Thermo Fisher Scientific, cat. PHG0311), and 10 microM Y-27632 dihydrochloride (Tocris Bioscience, cat. 1254). The K12877-001-R-J1-PDC line was cultured in 6I media, which includes all 6C/Colon 1B media plus 10 ng/mL human FGF-10 (PeproTech, cat. 100-26), 1 ng/mL human FGF-2 (PeproTech, cat. 100-18B), 1 µM prostaglandin E2 (Tocris Bioscience, cat. 2296), […] hydrocortisone (Sigma-Aldrich, cat. H4001), and […] bovine insulin (Sigma-Aldrich, cat. I6634). The K86415-001-R-J1-PDC line was cultured in 6D media, which includes all 6C/Colon 1B media components minus the L-WRN conditioned media. The 485176-168-R4-J1-PDC was cultured in PANC media, which includes all 6C/Colon 1B media plus 100 ng/mL human FGF-10 (PeproTech, cat. 100-26), 500 nM SB-431542 (Selleckchem, cat. S1067), and 10 nM gastrin (Tocris Bioscience, cat. 3006). […]
# 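Further: spheroids exposed to compound for seven days before readout.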
# 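Wherever viability, T/C is given: 100% = DMSO vehicle control wells.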
compound,measurement,setting,value
CC(C)n1nc(-c2ccc3oc(N)nc3c2)c2c(N)ncnc21 + CCn1c(-c2cc(N3CCN(C)CC3)cnc2C(C)OC)c2c3cc(ccc31)-c1csc(n1)CC(NC(=O)C1CC1C)C(=O)N1CCCC(N1)C(=O)OCC(C)(C)C2,IC50,second compound 0.000949 µM,0.0205 µM
same,IC50,second compound 0.003 µM,0.0193 µM
same,IC50,second compound 0.00949 µM,0.0173 µM
same,IC50,second compound 0.03 µM,0.0137 µM
same,IC50,second compound 0.0949 µM,0.0182 µM
same,IC50,second compound 0.3 µM,0.0149 µM
same,"viability, T/C","second compound 0.000949 µM, first compound 0.000316 µM",98%
same,"viability, T/C","second compound 0.000949 µM, first compound 0.001 µM",82.6%
same,"viability, T/C","second compound 0.000949 µM, first compound 0.00316 µM",89.9%
same,"viability, T/C","second compound 0.000949 µM, first compound 0.01 µM",63.3%
same,"viability, T/C","second compound 0.000949 µM, first compound 0.0316 µM",41.1%
same,"viability, T/C","second compound 0.000949 µM, first compound 0.1 µM",16.7%
same,"viability, T/C","second compound 0.003 µM, first compound 0.000316 µM",100%
same,"viability, T/C","second compound 0.003 µM, first compound 0.001 µM",92.8%
same,"viability, T/C","second compound 0.003 µM, first compound 0.00316 µM",86.5%
same,"viability, T/C","second compound 0.003 µM, first compound 0.01 µM",69.3%
same,"viability, T/C","second compound 0.003 µM, first compound 0.0316 µM",35.6%
same,"viability, T/C","second compound 0.003 µM, first compound 0.1 µM",14.1%
same,"viability, T/C","second compound 0.00949 µM, first compound 0.000316 µM",92%
same,"viability, T/C","second compound 0.00949 µM, first compound 0.001 µM",88.3%
same,"viability, T/C","second compound 0.00949 µM, first compound 0.00316 µM",80.2%
same,"viability, T/C","second compound 0.00949 µM, first compound 0.01 µM",63.5%
same,"viability, T/C","second compound 0.00949 µM, first compound 0.0316 µM",35.4%
same,"viability, T/C","second compound 0.00949 µM, first compound 0.1 µM",15.7%
same,"viability, T/C","second compound 0.03 µM, first compound 0.000316 µM",97.4%
same,"viability, T/C","second compound 0.03 µM, first compound 0.001 µM",91.8%
same,"viability, T/C","second compound 0.03 µM, first compound 0.00316 µM",69.5%
same,"viability, T/C","second compound 0.03 µM, first compound 0.01 µM",57%
same,"viability, T/C","second compound 0.03 µM, first compound 0.0316 µM",35.2%
same,"viability, T/C","second compound 0.03 µM, first compound 0.1 µM",12.4%
same,"viability, T/C","second compound 0.0949 µM, first compound 0.000316 µM",109%
same,"viability, T/C","second compound 0.0949 µM, first compound 0.001 µM",108%
same,"viability, T/C","second compound 0.0949 µM, first compound 0.00316 µM",79.5%
same,"viability, T/C","second compound 0.0949 µM, first compound 0.01 µM",64.6%
same,"viability, T/C","second compound 0.0949 µM, first compound 0.0316 µM",38.5%
same,"viability, T/C","second compound 0.0949 µM, first compound 0.1 µM",15.1%
same,"viability, T/C","second compound 0.3 µM, first compound 0.000316 µM",103%
same,"viability, T/C","second compound 0.3 µM, first compound 0.001 µM",100%
same,"viability, T/C","second compound 0.3 µM, first compound 0.00316 µM",69.2%
same,"viability, T/C","second compound 0.3 µM, first compound 0.01 µM",56.2%
same,"viability, T/C","second compound 0.3 µM, first compound 0.0316 µM",40.2%
same,"viability, T/C","second compound 0.3 µM, first compound 0.1 µM",12.7%
CC1(O)CCCC1n1c(=O)c(C(F)F)cc2cnc(NC3CCN(S(C)(=O)=O)CC3)nc21 (centres undefined) + C#Cc1c(F)ccc2cc(O)cc(-c3ncc4c(N5CC6CCC(C5)N6)nc(OCC56CCCN5CC(F)C6)nc4c3F)c12,IC50,second compound 0.0316 µM,0.584 µM
same,IC50,second compound 0.1 µM,0.129 µM
same,IC50,second compound 0.316 µM,0.334 µM
same,IC50,second compound 1 µM,0.529 µM
same,IC50,second compound 3.16 µM,0.321 µM
same,IC50,second compound 10 µM,< 0.0316 µM
same,"viability, T/C","second compound 0.0316 µM, first compound 0.0316 µM",66.1%
same,"viability, T/C","second compound 0.0316 µM, first compound 0.1 µM",53.6%
same,"viability, T/C","second compound 0.0316 µM, first compound 0.316 µM",44.3%
same,"viability, T/C","second compound 0.0316 µM, first compound 1 µM",49.5%
same,"viability, T/C","second compound 0.0316 µM, first compound 3.16 µM",43.1%
same,"viability, T/C","second compound 0.0316 µM, first compound 10 µM",19.9%
same,"viability, T/C","second compound 0.1 µM, first compound 0.0316 µM",95%
same,"viability, T/C","second compound 0.1 µM, first compound 0.1 µM",52.6%
same,"viability, T/C","second compound 0.1 µM, first compound 0.316 µM",38.7%
same,"viability, T/C","second compound 0.1 µM, first compound 1 µM",43.4%
same,"viability, T/C","second compound 0.1 µM, first compound 3.16 µM",48.3%
same,"viability, T/C","second compound 0.1 µM, first compound 10 µM",23.4%
same,"viability, T/C","second compound 0.316 µM, first compound 0.0316 µM",76.8%
same,"viability, T/C","second compound 0.316 µM, first compound 0.1 µM",50.7%
same,"viability, T/C","second compound 0.316 µM, first compound 0.316 µM",41.8%
same,"viability, T/C","second compound 0.316 µM, first compound 1 µM",49.8%
same,"viability, T/C","second compound 0.316 µM, first compound 3.16 µM",43.5%
same,"viability, T/C","second compound 0.316 µM, first compound 10 µM",19.4%
same,"viability, T/C","second compound 1 µM, first compound 0.0316 µM",79%
same,"viability, T/C","second compound 1 µM, first compound 0.1 µM",57.6%
same,"viability, T/C","second compound 1 µM, first compound 0.316 µM",46.2%
same,"viability, T/C","second compound 1 µM, first compound 1 µM",46.8%
same,"viability, T/C","second compound 1 µM, first compound 3.16 µM",48.3%
same,"viability, T/C","second compound 1 µM, first compound 10 µM",18.1%
same,"viability, T/C","second compound 3.16 µM, first compound 0.0316 µM",88.7%
same,"viability, T/C","second compound 3.16 µM, first compound 0.1 µM",54.5%
same,"viability, T/C","second compound 3.16 µM, first compound 0.316 µM",49.4%
same,"viability, T/C","second compound 3.16 µM, first compound 1 µM",41.5%
same,"viability, T/C","second compound 3.16 µM, first compound 3.16 µM",46.7%
same,"viability, T/C","second compound 3.16 µM, first compound 10 µM",16.5%
same,"viability, T/C","second compound 10 µM, first compound 0.0316 µM",37.5%
same,"viability, T/C","second compound 10 µM, first compound 0.1 µM",24.6%
same,"viability, T/C","second compound 10 µM, first compound 0.316 µM",26.9%
same,"viability, T/C","second compound 10 µM, first compound 1 µM",27.1%
same,"viability, T/C","second compound 10 µM, first compound 3.16 µM",35.8%
same,"viability, T/C","second compound 10 µM, first compound 10 µM",2.8%
